Measurements published in US8952024B2, “Herbicidal pyrimidone derivatives” (E I du Pont de Nemours and Company, priority 2009, dated 2015).

Legend:
Format in all cases: in vivo
[1] = system: Surinam grass (Brachiaria decumbens); assay: Test B pre-/postemergence plant response
Method in brief: (§1)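 Steps: sow seed in loam–sand soil and spray preemergence, or grow plants in peat-based medium to 1–4 leaves (2–18 cm) and spray postemergence; formulation is non-phytotoxic solvent plus surfactant; hold in greenhouse 13–15 days; score visually vs controls, 0 = no effect, 100 = complete control.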

[2] = system: blackgrass (Alopecurus myosuroides); assay: Test B pre-/postemergence plant response
Method in brief: as §1

[3] = system: corn (Zea mays); assay: Test B pre-/postemergence plant response
Method in brief: as §1

[4] = system: giant foxtail (Setaria faberii); assay: Test B pre-/postemergence plant response
Method in brief: as §1

[5] = system: goosegrass (Eleusine indica); assay: Test B pre-/postemergence plant response
Method in brief: as §1

[6] = system: green foxtail (Setaria viridis); assay: Test B pre-/postemergence plant response
Method in brief: as §1

[7] = system: johnsongrass (Sorghum halepense); assay: Test B pre-/postemergence plant response
Method in brief: as §1

[8] = system: lambsquarters (Chenopodium album); assay: Test B pre-/postemergence plant response
Method in brief: as §1

[9] = system: pigweed (Amaranthus retroflexus); assay: Test B pre-/postemergence plant response
Method in brief: as §1

[10] = system: ragweed (common ragweed, Ambrosia elatior); assay: Test B pre-/postemergence plant response
Method in brief: as §1

[11] = system: wild oat (Avena fatua); assay: Test B pre-/postemergence plant response
Method in brief: as §1

[12] = system: rice (Oryza sativa); assay: Test B flooded paddy test; settings: for Plant response rating, Flood, Rice: 250 g ai/ha, flooded paddy test, visual rating on 0 to 100 scale (0 no effect, 100 complete control) after 13 to 15 days; for Plant response rating, Rice: Flood (flooded paddy test), 13 to 15 days
Method in brief: (§2)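 Ratings are visual, 0–100 (100 = complete control), taken versus untreated controls 13 to 15 days after treatment in the greenhouse. Compound went straight into paddy water held 3 cm above soil, applied to 2-leaf-stage plants of four species.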

[13] = system: umbrella sedge (Cyperus difformis); assay: Test B flooded paddy test; settings: for Plant response rating, Flood, Sedge, Umbrella: 250 g ai/ha, flooded paddy test, visual rating on 0 to 100 scale (0 no effect, 100 complete control) after 13 to 15 days; for Plant response rating, Sedge, Umbrella: Flood (flooded paddy test), 13 to 15 days
Method in brief: as §2

[14] = 31 g ai/ha, postemergence, scale 0 to 100, 0 is no effect, 100 is complete control
[15] = Postemergence, 62 g ai/ha, scale 0 (no effect) to 100 (complete control), 13 to 15 days
[16] = Postemergence, 125 g ai/ha, visual rating after 13 to 15 days, scale 0 (no effect) to 100 (complete control)
[17] = Postemergence, 250 g ai/ha, scale 0 to 100 (0 no effect, 100 complete control)
[18] = Preemergence, 31 g ai/ha, scale 0 to 100 (0 no effect, 100 complete control)
[19] = Preemergence, 62 g ai/ha, scale 0 to 100 (0 no effect, 100 complete control)
[20] = Preemergence, 125 g ai/ha, scale 0 to 100, 0 no effect, 100 complete control
[21] = 250 g ai/ha, Preemergence, 0 to 100 scale
[22] = 31 g ai/ha, scale of 0 to 100 where 0 is no effect and 100 is complete control
[23] = 62 g ai/ha, scale of 0 to 100 where 0 is no effect and 100 is complete control
[24] = 125 g ai/ha, scale 0 to 100, 0 is no effect, 100 is complete control
[25] = 62 g ai/ha, postemergence, 0 is no effect, 100 is complete control, 13 to 15 days
[26] = Flood, 31 g ai/ha, scale 0 to 100 (0 no effect, 100 complete control)

O=C1CCCC(O)=C1C(=O)c1cnc(-c2cccc(Cl)c2)n(-c2ccc(Cl)cc2)c1=O [Compound 64]
Plant response rating, Surinam Grass [1, 14]: 85 | Plant response rating, Surinam Grass [1, 15]: 95 | Plant response rating, Surinam Grass [1, 16]: 98 | Plant response rating, Surinam Grass [1, 17]: 98 | Plant response rating, Surinam Grass [1, 18]: 0 | Plant response rating, Surinam Grass [1, 19]: 85 | Plant response rating, Surinam Grass [1, 20]: 85 | Plant response rating, Blackgrass [2, 14]: 0 | Plant response rating, Blackgrass [2, 21]: 0 | Plant response rating, Blackgrass [2, 15]: 0 | Plant response rating, Blackgrass [2, 16]: 5 | Plant response rating, Blackgrass [2, 17]: 15 | Plant response rating, Blackgrass [2, 18]: 0 | Plant response rating, Blackgrass [2, 19]: 0 | Plant response rating, Blackgrass [2, 20]: 0 | Plant response rating, Corn [3, 14]: 80 | Plant response rating, Corn [3, 21]: 0 | Plant response rating, Corn [3, 15]: 85 | Plant response rating, Corn [3, 16]: 85 | Plant response rating, Corn [3, 17]: 90 | Plant response rating, Corn [3, 18]: 0 | Plant response rating, Corn [3, 19]: 0 | Plant response rating, Corn [3, 20]: 0 | Plant response rating, Foxtail, Giant [4, 14]: 90 | Plant response rating, Foxtail, Giant [4, 21]: 65 | Plant response rating, Foxtail, Giant [4, 15]: 95 | Plant response rating, Foxtail, Giant [4, 16]: 98 | Plant response rating, Foxtail, Giant [4, 17]: 100 | Plant response rating, Foxtail, Giant [4, 18]: 20 | Plant response rating, Foxtail, Giant [4, 19]: 25 | Plant response rating, Foxtail, Giant [4, 20]: 35 | Plant response rating, Goosegrass [5, 14]: 80 | Plant response rating, Goosegrass [5, 21]: 100 | Plant response rating, Goosegrass [5, 15]: 80 | Plant response rating, Goosegrass [5, 16]: 85 | Plant response rating, Goosegrass [5, 17]: 90 | Plant response rating, Goosegrass [5, 18]: 30 | Plant response rating, Goosegrass [5, 19]: 40 | Plant response rating, Goosegrass [5, 20]: 98 | Plant response rating, Foxtail, Green [6, 14]: 70 | Plant response rating, Foxtail, Green [6, 21]: 50 | Plant response rating, Foxtail, Green [6, 15]: 85 | Plant response rating, Foxtail, Green [6, 16]: 100 | Plant response rating, Foxtail, Green [6, 17]: 100 | Plant response rating, Foxtail, Green [6, 18]: 0 | Plant response rating, Foxtail, Green [6, 19]: 0 | Plant response rating, Foxtail, Green [6, 20]: 0 | Plant response rating, Johnsongrass [7, 14]: 90 | Plant response rating, Johnsongrass [7, 21]: 75 | Plant response rating, Johnsongrass [7, 15]: 98 | Plant response rating, Johnsongrass [7, 16]: 100 | Plant response rating, Johnsongrass [7, 17]: 100 | Plant response rating, Johnsongrass [7, 18]: 0 | Plant response rating, Johnsongrass [7, 19]: 0 | Plant response rating, Johnsongrass [7, 20]: 55 | Plant response rating, Lambsquarters [8, 14]: 95 | Plant response rating, Lambsquarters [8, 21]: 98 | Plant response rating, Lambsquarters [8, 15]: 100 | Plant response rating, Lambsquarters [8, 16]: 100 | Plant response rating, Lambsquarters [8, 17]: 100 | Plant response rating, Lambsquarters [8, 18]: 95 | Plant response rating, Lambsquarters [8, 19]: 98 | Plant response rating, Lambsquarters [8, 20]: 98 | Plant response rating, Pigweed [9, 14]: 98 | Plant response rating, Pigweed [9, 15]: 100 | Plant response rating, Pigweed [9, 16]: 100 | Plant response rating, Pigweed [9, 17]: 100 | Plant response rating, Pigweed [9, 18]: 55 | Plant response rating, Pigweed [9, 19]: 75 | Plant response rating, Pigweed [9, 20]: 85 | Plant response rating, Ragweed [10, 14]: 85 | Plant response rating, Ragweed [10, 15]: 85 | Plant response rating, Ragweed [10, 16]: 90 | Plant response rating, Ragweed [10, 17]: 90 | Plant response rating, Ragweed [10, 18]: 0 | Plant response rating, Ragweed [10, 19]: 50 | Plant response rating, Ragweed [10, 20]: 75 | Plant response rating, Oat, Wild [11, 14]: 60 | Plant response rating, Oat, Wild [11, 15]: 90 | Plant response rating, Oat, Wild [11, 16]: 95 | Plant response rating, Oat, Wild [11, 17]: 98 | Plant response rating, Oat, Wild [11, 18]: 0 | Plant response rating, Oat, Wild [11, 19]: 0 | Plant response rating, Oat, Wild [11, 20]: 0 | Plant response rating, Flood, Rice [12]: 0 | Plant response rating, Rice [12, 22]: 0 | Plant response rating, Rice [12, 23]: 0 | Plant response rating, Rice [12, 24]: 0 | Plant response rating, Flood, Sedge, Umbrella [13]: 40 | Plant response rating, Sedge, Umbrella [13, 22]: 0 | Plant response rating, Sedge, Umbrella [13, 23]: 0 | Plant response rating, Sedge, Umbrella [13, 24]: 0

CCCCc1ncc(C(=O)C2=C(O)CCCC2=O)c(=O)n1-c1ccc(C)cc1 [Compound 67]
Plant response rating, Surinam Grass [1, 14]: 10 | Surinam Grass plant response rating (0 to 100 scale) [1, 25]: 20 | Plant response rating, Surinam Grass [1, 16]: 20 | Plant response rating, Surinam Grass [1, 17]: 25 | Plant response rating, Surinam Grass [1, 18]: 0 | Plant response rating, Surinam Grass [1, 19]: 10 | Plant response rating, Surinam Grass [1, 20]: 15 | Plant response rating, Blackgrass [2, 14]: 0 | Blackgrass plant response rating (0 to 100 scale) [2, 25]: 0 | Plant response rating, Blackgrass [2, 21]: 5 | Plant response rating, Blackgrass [2, 16]: 5 | Plant response rating, Blackgrass [2, 17]: 10 | Plant response rating, Blackgrass [2, 18]: 0 | Plant response rating, Blackgrass [2, 19]: 0 | Plant response rating, Blackgrass [2, 20]: 0 | Plant response rating, Corn [3, 14]: 5 | Corn plant response rating (0 to 100 scale) [3, 25]: 10 | Plant response rating, Corn [3, 21]: 0 | Plant response rating, Corn [3, 16]: 65 | Plant response rating, Corn [3, 17]: 75 | Plant response rating, Corn [3, 18]: 0 | Plant response rating, Corn [3, 19]: 0 | Plant response rating, Corn [3, 20]: 0 | Plant response rating, Foxtail, Giant [4, 14]: 75 | Foxtail, Giant plant response rating (0 to 100 scale) [4, 25]: 80 | Plant response rating, Foxtail, Giant [4, 21]: 65 | Plant response rating, Foxtail, Giant [4, 16]: 85 | Plant response rating, Foxtail, Giant [4, 17]: 90 | Plant response rating, Foxtail, Giant [4, 18]: 0 | Plant response rating, Foxtail, Giant [4, 19]: 0 | Plant response rating, Foxtail, Giant [4, 20]: 45 | Plant response rating, Goosegrass [5, 14]: 55 | Goosegrass plant response rating (0 to 100 scale) [5, 25]: 55 | Plant response rating, Goosegrass [5, 21]: 98 | Plant response rating, Goosegrass [5, 16]: 65 | Plant response rating, Goosegrass [5, 17]: 80 | Plant response rating, Goosegrass [5, 18]: 85 | Plant response rating, Goosegrass [5, 19]: 85 | Plant response rating, Goosegrass [5, 20]: 90 | Plant response rating, Foxtail, Green [6, 14]: 10 | Foxtail, Green plant response rating (0 to 100 scale) [6, 25]: 80 | Plant response rating, Foxtail, Green [6, 21]: 40 | Plant response rating, Foxtail, Green [6, 16]: 80 | Plant response rating, Foxtail, Green [6, 17]: 95 | Plant response rating, Foxtail, Green [6, 18]: 0 | Plant response rating, Foxtail, Green [6, 19]: 30 | Plant response rating, Johnsongrass [7, 14]: 0 | Johnsongrass plant response rating (0 to 100 scale) [7, 25]: 0 | Plant response rating, Johnsongrass [7, 21]: 0 | Plant response rating, Johnsongrass [7, 16]: 5 | Plant response rating, Johnsongrass [7, 17]: 10 | Plant response rating, Johnsongrass [7, 18]: 0 | Plant response rating, Johnsongrass [7, 19]: 0 | Plant response rating, Johnsongrass [7, 20]: 0 | Plant response rating, Lambsquarters [8, 14]: 80 | Lambsquarters plant response rating (0 to 100 scale) [8, 25]: 95 | Plant response rating, Lambsquarters [8, 21]: 98 | Plant response rating, Lambsquarters [8, 16]: 98 | Plant response rating, Lambsquarters [8, 17]: 100 | Plant response rating, Lambsquarters [8, 18]: 98 | Plant response rating, Lambsquarters [8, 19]: 98 | Plant response rating, Lambsquarters [8, 20]: 98 | Plant response rating, Pigweed [9, 14]: 98 | Pigweed plant response rating (0 to 100 scale) [9, 25]: 98 | Plant response rating, Pigweed [9, 16]: 98 | Plant response rating, Pigweed [9, 17]: 100 | Plant response rating, Pigweed [9, 18]: 98 | Plant response rating, Pigweed [9, 19]: 98 | Plant response rating, Pigweed [9, 20]: 98 | Plant response rating, Ragweed [10, 14]: 75 | Ragweed plant response rating (0 to 100 scale) [10, 25]: 80 | Plant response rating, Ragweed [10, 16]: 85 | Plant response rating, Ragweed [10, 17]: 90 | Plant response rating, Ragweed [10, 18]: 25 | Plant response rating, Ragweed [10, 19]: 25 | Plant response rating, Ragweed [10, 20]: 35 | Plant response rating, Oat, Wild [11, 14]: 0 | Oat, Wild plant response rating (0 to 100 scale) [11, 25]: 5 | Plant response rating, Oat, Wild [11, 16]: 10 | Plant response rating, Oat, Wild [11, 17]: 10 | Plant response rating, Oat, Wild [11, 18]: 0 | Plant response rating, Oat, Wild [11, 19]: 0 | Plant response rating, Oat, Wild [11, 20]: 0 | Plant response rating, Flood, Rice [12]: 0 | Plant response rating, Rice [12, 23]: 0 | Plant response rating, Rice [12, 24]: 0 | Rice plant response rating [12, 26]: 0 | Plant response rating, Flood, Sedge, Umbrella [13]: 0 | Plant response rating, Sedge, Umbrella [13, 23]: 0 | Plant response rating, Sedge, Umbrella [13, 24]: 0 | Sedge, Umbrella plant response rating [13, 26]: 0
